# Assay results: BindingDB's records for doi:10.1021/jm00035a014 (University of Paris, 1994)
# Target: Glutamyl aminopeptidase (Oryctolagus cuniculus)
# Assay: Inhibition of aminopeptidase A (APA)
row,Ki,SMILES
1,0.84 µM,NC(CS)Cc1cccc(C(=O)O)c1 (configuration not stated) [3-(2-Amino-3-mercapto-propyl)-benzoic acid]
2,1.9 µM,NC(CS)CC1CCC(C(=O)O)CC1 (configuration not stated) [4-(2-Amino-3-mercapto-propyl)-cyclohexanecarboxylic acid]
3,2.3 µM,N[C@@H](CS)CCC(=O)O [(R)-4-Amino-5-mercapto-pentanoic acid]
4,2 µM,N[C@H](CCS)CCC(=O)O [(S)-4-Amino-6-mercapto-hexanoic acid]
5,2.8 µM,NC(CS)CC1CCC(CC(=O)O)CC1 (configuration not stated) [[4-(2-Amino-3-mercapto-propyl)-cyclohexyl]-acetic acid]
6,2.2 µM,NC(CS)Cc1ccc(CC(=O)O)cc1 (configuration not stated) [[4-(2-Amino-3-mercapto-propyl)-phenyl]-acetic acid]

# The next lines start with the molecule.
row,SMILES,Ki
1,NC(CS)c1cccc(C(=O)O)c1 (configuration not stated) [1-(3-Carboxy-phenyl)-2-mercapto-ethyl-ammonium],2.4 µM
2,NC(CS)CC1CCCC(C(=O)O)C1 (configuration not stated) [2-(3-Carboxy-cyclohexyl)-1-mercaptomethyl-ethyl-ammonium],> 3 µM
3,NC(CS)Cc1ccc(C(=O)O)cc1 (configuration not stated) [2-(4-Carboxy-phenyl)-1-mercaptomethyl-ethyl-ammonium],2.7 µM
4,NC(CS)c1ccc(C(=O)O)cc1 (configuration not stated) [4-(1-Amino-2-mercapto-ethyl)-benzoic acid],> 3 µM

# Target: Aminopeptidase N (Sus scrofa) (UniProt P15145)
# Assay: Inhibitory potency against aminopeptidase N (APN)
# Aminopeptidase N (Sus scrofa), sequence (P15145 whole entry, looked up): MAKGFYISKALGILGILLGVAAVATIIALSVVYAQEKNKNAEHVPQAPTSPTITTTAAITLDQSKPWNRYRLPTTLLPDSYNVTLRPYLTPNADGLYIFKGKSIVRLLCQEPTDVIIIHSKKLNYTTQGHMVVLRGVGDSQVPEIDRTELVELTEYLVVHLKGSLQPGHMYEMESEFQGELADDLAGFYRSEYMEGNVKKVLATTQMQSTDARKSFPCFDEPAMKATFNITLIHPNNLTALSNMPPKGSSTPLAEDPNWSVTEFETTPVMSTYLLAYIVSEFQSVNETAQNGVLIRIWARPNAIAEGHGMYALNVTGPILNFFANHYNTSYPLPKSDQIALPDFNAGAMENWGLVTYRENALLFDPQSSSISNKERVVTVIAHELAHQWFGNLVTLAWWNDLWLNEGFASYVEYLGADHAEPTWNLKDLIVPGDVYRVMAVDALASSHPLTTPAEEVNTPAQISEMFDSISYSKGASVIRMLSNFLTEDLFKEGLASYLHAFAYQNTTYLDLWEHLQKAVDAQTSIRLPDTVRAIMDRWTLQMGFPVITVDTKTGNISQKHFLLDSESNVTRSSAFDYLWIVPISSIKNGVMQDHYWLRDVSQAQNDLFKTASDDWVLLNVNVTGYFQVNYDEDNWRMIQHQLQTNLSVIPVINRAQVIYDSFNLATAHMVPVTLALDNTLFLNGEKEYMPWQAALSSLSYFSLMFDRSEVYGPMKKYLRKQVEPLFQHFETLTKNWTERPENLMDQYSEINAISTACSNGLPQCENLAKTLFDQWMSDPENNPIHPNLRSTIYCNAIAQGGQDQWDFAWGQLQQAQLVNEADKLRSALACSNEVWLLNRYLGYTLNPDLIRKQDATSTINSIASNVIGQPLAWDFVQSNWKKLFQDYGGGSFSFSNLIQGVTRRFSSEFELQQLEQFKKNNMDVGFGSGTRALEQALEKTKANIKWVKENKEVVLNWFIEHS
row,SMILES,IC50
1,NC(Cc1ccccc1)CP(=O)(O)O (configuration not stated) [1-Benzyl-2-phosphono-ethyl-ammonium],500 µM
2,NC(CC(=O)O)Cc1ccccc1 (configuration not stated) [3-Amino-4-phenyl-butyric acid],800 µM
